Experimental data from patent US6747023B1 (Daiichi Pharmaceutical Co., Ltd., priority 1998, dated 2004).
Counter-ions that a name gives are not always drawn. Like-named read-outs stand apart in the source and are kept apart here.

Assays:
human thrombin = molecular target: T1, human thrombin (Homo sapiens, UniProt P00734); assay: Measurement of thrombin inhibitory action (IC50); format: biochemical
T1 construct: carries out limited proteolysis of prothrombin, thereby forming thrombin; purchased Sigma Chemical
Procedure: Measurement of Thrombin Inhibitory Action (IC50)
In a 96-well microtiter plate, 10 μl of a sample solution, 40 μl of a 100 mM tris.200 mM sodium chloride 0.2% BSA (pH: 7.4) buffer and 10 μl of 4 U/ml human thrombin (Sigma Chemical, dissolved in and diluted with a measuring buffer) were poured in portions, followed by the addition of 40 μl of 500 μM S2266 (product of Chromogenix). An increase (mOD/min) in the absorbance at 405 nm was measured at room temperature. From the below-described equation, an inhibitory ratio % of each sample was determined. On a logarithmic probability paper, the final concentration of the sample and inhibitory ratio % were plotted along the abscissa and the ordinate, respectively, whereby a 50% inhibitory concentration (IC50) was found.
(§1) Inhibitory ratio (%)=(1−OD of sample÷OD of control)×100

human FXa = molecular target: T2, human FXa (Homo sapiens, UniProt P00742); assay: Measurement of FXa inhibitory action (IC50); format: biochemical
T2 construct: purchased Cosmobio-ERL HFXa-1011
Procedure: Measurement of FXa Inhibitory Action (IC50)
From the below-described equation, an inhibitory ratio % of each sample was determined.
as §1

[1] = test system: prothrombin time of the plasma; assay: Test of oral administration: coagulation extending action (prothrombin time); format: in vivo, Wistar male rat; conditions: rat, oral administration of 30 mg/kg
Procedure: (§2) A sample was dissolved or suspended in a 0.5% (w/v) methyl cellulose solution and the resulting solution or suspension was orally administered (10 ml/kg) to a 8 to 11 week-old rat (Wistar male rat (Nippon SLC Co., Ltd.)) which had been fasted overnight. After administration of the sample, the blood to which 1/10 part by weight of 3.13% (w/v) sodium citrate had been added was collected from the cervical vein under anesthesia with halothane. The rat was awakened except during the blood collection. Feeding was re-started 6 hours after the blood collection. From each blood sample, the plasma was separated by centrifugal separation and anti-FXa activity in the blood and prothrombin time extending action were measured.
To 20 μl of the plasma, 40 μl of cynplastin (Organon Teknika/USA) was added and the coagulation time was measured. The ratio of the prothrombin time after the administration of the sample relative to the prothrombin time before the administration of the sample was designated as an index of the coagulation extending action.

human Factor Xa = human Factor Xa (Homo sapiens, UniProt P00742); assay: Test of oral administration: anti-FXa activity in the plasma; format: in vivo, Wistar male rat; conditions: rat, one hour after the oral administration of 30 mg/kg
Procedure: as §2
In a 96-well plate, 5 μl of the plasma was poured in portions, followed by the addition of 55 μl of a 8:1:2 mixture of 100 mM tris.200 mM sodium chloride.0.2% BSA (pH 7.4) buffer, water and 0.1 U/ml human Factor Xa solution (dissolved in and diluted with a measuring buffer) and 40 μl of 750 μM S-2222. After stirring for 10 seconds in a plate mixer, an increase (mOD/min) of the absorbance at 405 nm was measured at room temperature. The inhibitory ratio was calculated as follows:
An inhibitory ratio (%)=(1−OD of sample÷OD of control on average relative to blood-collecting time of sample)×100

[2] = test system: tissue thromboplastin-derived DIC; assay: Anti-thrombus effects in a tissue thromboplastin-derived rat DIC model; format: in vivo; conditions: oral 30 mg/kg, tissue thromboplastin one hour after the sample
Procedure: A rat was anesthetized with halothane. After the collection of the blood (for measurement of the number of platelets, anti-FXa activity and TAT) from its cervical vein by using 1/10 part by weight of 3.13% (w/v) sodium citrate, the sample was administered orally. At an appropriate time after the administration, the rat was intraperitoneally anesthetized ([…]) with Nembutal (50 mg/ml pentobarbital sodium, Abott Laboratories), followed by intravenous drip of 0.2 U/ml of tissue thromboplastin (Thromboplastin C plus, Dade Diagnostics of P. R. Inc.,) from the femoral vein for one minute at a rate of 2.5 to 3.0 ml/kg/min. The blood was collected (for measuring the number of platelets and anti-FXa activity) from the cervical vein 10 minutes after the intravenous drip and the blood was collected (for measuring TAT) from the cervical vein 20 minutes after the blood collection. The number of platelets, anti-FXa activity in the plasma and TAT concentration of each blood sample were measured. The number of the platelets was measured by an automatic cytometer, while the anti-FXa activity in the plasma was measured in a similar manner to that described in Test 4.
For the measurement of TAT (Thrombin-anti Thrombin=complex), EnzygnostR TAT micro kit (Boering Verke) was employed.

[3] = 4 U/ml human thrombin, substrate S2266, absorbance at 405 nm, room temperature, read-out: Concentration (nM) of the sample at which 50% of thrombin activity is inhibited
[4] = 0.05 U/ml human FXa, substrate S2222, absorbance at 405 nm, room temperature, read-out: Concentration (nM) of the sample at which 50% of Fxa activity is inhibited

T2 sequence (P00742 235-488 limits assumed): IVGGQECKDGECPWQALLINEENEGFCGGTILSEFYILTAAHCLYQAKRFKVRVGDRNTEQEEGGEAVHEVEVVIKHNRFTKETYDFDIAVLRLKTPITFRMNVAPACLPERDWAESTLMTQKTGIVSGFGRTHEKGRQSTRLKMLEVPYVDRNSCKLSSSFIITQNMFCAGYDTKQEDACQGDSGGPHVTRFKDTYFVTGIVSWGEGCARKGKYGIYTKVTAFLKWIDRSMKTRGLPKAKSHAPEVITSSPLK
T2 sequence (P00742 41-179 partner limits assumed): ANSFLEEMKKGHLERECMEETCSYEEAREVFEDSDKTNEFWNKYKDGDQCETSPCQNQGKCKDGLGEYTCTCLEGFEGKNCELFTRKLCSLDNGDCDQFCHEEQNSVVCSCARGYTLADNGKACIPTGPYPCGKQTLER
Chain of human Factor Xa (P00742 235-488 limits assumed): as the sequence (P00742 235-488 limits assumed) above
Chain of human Factor Xa (P00742 41-179 partner limits assumed): as the sequence (P00742 41-179 partner limits assumed) above

## CN1CCc2nc(C(=O)N3CCN(S(=O)(=O)c4cc5cc(Cl)ccc5[nH]4)CC3)sc2C1 [Example B-54, hydrochloride]
Human thrombin; same test as Tables 7-8, read-out: thrombin 50% inhibitory concentration
  IC50: 1050 nM
Human FXa; same test as Tables 1-6, read-out: FXa 50% inhibitory concentrations
  IC50: 5 nM

## C#Cc1ccc2[nH]c(S(=O)(=O)N3CCN(C(=O)c4ccc(-c5ccncc5)cc4)CC3)cc2c1 [Example A-103, 1-[(5-Ethynylindol-2-yl)sulfonyl]-4-[4-(pyridin-4-yl)benzoyl]piperazine]
Human thrombin; [3]
  IC50: 2220 nM
Human FXa; [4]
  IC50: 27 nM

## O=C(c1ccc(-c2cccc[n+]2[O-])cc1)N1CCN(S(=O)(=O)c2cc3ccc(Cl)cc3s2)CC1 [Example A-117, 2-[4-[[4-[(6-Chlorobenzo[b]thien-2-yl)sulfonyl]piperazin-1-yl]carbonyl]phenyl]pyridine N-oxide]
Human thrombin; [3]
  IC50: 4100 nM
Human FXa; [4]
  IC50: 10.5 nM

## O=C(c1cnc(-c2cc[n+]([O-])cc2)cn1)N1CCN(S(=O)(=O)c2cc3cc(Cl)ccc3[nH]2)CC1 [Example A-140, 4-[5-[[4-[(5-Chloroindol-2-yl)sulfonyl]piperazin-1-yl]carbonyl]pyrazin-2-yl]pyridine N-oxide]
Human thrombin; [3]
  IC50: 1370 nM
Human FXa; [4]
  IC50: 6.8 nM

## O=C(c1ncc(-c2ccncc2)cn1)N1CCN(S(=O)(=O)c2cc3cc(Cl)ccc3[nH]2)CC1 [Example A-105, 1-[(5-Chloroindol-2-yl)sulfonyl]-4-[[5-(pyridin-4-yl)pyrimidin-2-yl]carbonyl]piperazine]
Human thrombin; [3]
  IC50: 19000 nM

## O=C(c1ncc(-c2ccncc2)cn1)N1CCN(S(=O)(=O)c2ccc3cc(Cl)ccc3c2)CC1 [Example A-123, 1-[(6-Chloronaphthalen-2-yl)sulfonyl]-4-[[5-(pyridin-4-yl)pyrimidin-2-yl]carbonyl]piperazine]
Human thrombin; [3]
  IC50: 16000 nM
Human FXa; [4]
  IC50: 23 nM

## O=C(c1ncc(-c2cc[n+]([O-])cc2)cn1)N1CCN(S(=O)(=O)c2cc3cc(Cl)ccc3[nH]2)CC1 [Example A-134, 4-[2-[[4-[(5-Chloroindol-2-yl)sulfonyl]piperazin-1-yl]carbonyl]pyrimidin-5-yl]pyridine N-oxide]
Human thrombin; [3]
  IC50: 10200 nM
Human FXa; [4]
  IC50: 4.6 nM

## C#Cc1ccc2cc(S(=O)(=O)N3CCN(C(=O)c4ncc(-c5ccncc5)cn4)CC3)sc2c1 [Example A-216, 4-[[5-(Pyridin-4-yl)pyrimidin-2-yl]carbonyl]-1-[(6-ethynylbenzo[b]thien-2-yl)sulfonyl]piperazine]
Human thrombin; [3]
  IC50: > 50000 nM
Human FXa; [4]
  IC50: 15 nM

## O=C(c1cnc(-c2ccncc2)cn1)N1CCN(S(=O)(=O)c2cc3cc(Cl)ccc3[nH]2)CC1 [Example A-138, 1-[(5-Chloroindol-2-yl)sulfonyl]-4-[[5-(pyridin-4-yl)pyrazin-2-yl]carbonyl]piperazine]
Human thrombin; [3]
  IC50: 5900 nM
Human FXa; [4]
  IC50: 5 nM

## O=C(c1ncc(-c2ccncc2)cn1)N1CCN(S(=O)(=O)c2cc3ccc(Cl)cc3s2)CC1 [Example A-132, 1-[(6-Chlorobenzothiophen-2-yl)sulfonyl]-4-[[5-(pyridin-4-yl)pyrimidin-2-yl]carbonyl]piperazine]
Human thrombin; [3]
  IC50: > 100000 nM
Human FXa; [4]
  IC50: 5.6 nM

## O=C(c1cnc(-c2ccncc2)cn1)N1CCN(S(=O)(=O)c2ccc3cc(Cl)ccc3c2)CC1 [Example A-137, 1-[(6-Chloronaphthalen-2-yl)sulfonyl]-4-[[5-(pyridin-4-yl)pyrazin-2-yl]carbonyl]piperazine]
Human thrombin; [3]
  IC50: 4100 nM
Human FXa; [4]
  IC50: 60 nM

## Cl.O=C(C1CC=C(c2ccncc2)CC1)N1CCN(S(=O)(=O)c2ccc3cc(Cl)ccc3c2)CC1 (racemic) [Example A-60, 1-[(6-Chloronaphthalen-2-yl)sulfonyl]-4-[[(1RS)-4-(pyridin-4-yl)-3-cyclohexene]carbonyl]piperazine hydrochloride]
[1]
  extension of the prothrombin time (ratio after/before administration): 1.18 times
Human Factor Xa
  anti-FXa activity in the plasma: 70%

## CC1Cc2nc(C(=O)N3CCN(S(=O)(=O)c4ccc5cc(Cl)ccc5c4)CC3C(N)=O)sc2CN1.Cl (centres unmarked) [Example B-36, 2-Carbamoyl-4-[(6-chloronaphthalen-2-yl)sulfonyl]-1-[(6-methyl-4,5,6,7-tetrahydrothiazolo[5,4-c]pyridin-2-yl)carbonyl]piperazine hydrochloride]
[1]
  thrombin time (result in words): extended the thrombin time
Human Factor Xa
  anti-FXa activity in the plasma: 68%
[2]
  anti-FXa action in the plasma (result in words): apparent anti-FXa action in the plasma was recognized
  decrease in the number of the platelets: suppressed
  increase in the TAT concentration: suppressed

## O=C(c1ncc(-c2cc[n+]([O-])cc2)cn1)N1CCN(S(=O)(=O)c2cc3ccc(Cl)cc3s2)CC1 [Example A-133, 4-[2-[[4-[(6-Chlorobenzo[b]thien-2-yl)sulfonyl]piperazin-1-yl]carbonyl]pyrimidin-5-yl]pyridine N-oxide]
Human thrombin; [3]
  IC50: 7700 nM
Human FXa; [4]
  IC50: 10 nM

## O=C(c1ccc2c(c1)CNC2)N1CCN(S(=O)(=O)c2cc3cc(Cl)ccc3[nH]2)CC1 [Example B-189, 1-[(5-Chloroindol-2-yl)sulfonyl]-4-[(isoindolin-5-yl)carbonyl]piperazine]
other
  melting point: 196 to 199 °C (dec.)

## O=C(c1ccc(-c2ccncc2)cc1)N1CCN(S(=O)(=O)c2cc3cc(Cl)ccc3[nH]2)CC1 [Example A-101, 1-[(5-Chloroindol-2-yl)sulfonyl]-4-[4-(pyridin-4-yl)benzoyl]piperazine]
Human FXa; [4]
  IC50: 9.5 nM

## O=C(c1ccc(-c2ccnc(CO)c2)cc1)N1CCN(S(=O)(=O)c2ccc3cc(Cl)ccc3c2)CC1 [Example A-152, 1-[(6-Chloronaphthalen-2-yl)sulfonyl]-4-[4-(2-hydroxymethylpyridin-4-yl)benzoyl]piperazine]
Human FXa; [4]
  IC50: 38 nM

## O=C(c1ccc(-c2cccc[n+]2[O-])cc1)N1CCN(S(=O)(=O)c2cc3cc(Cl)ccc3[nH]2)CC1 [Example A-109, 2-[4-[[4-[(5-Chloroindol-2-yl)sulfonyl]piperazin-1-yl]carbonyl]phenyl]pyridine N-oxide]
Human thrombin; [3]
  IC50: 1550 nM
Human FXa; [4]
  IC50: 6.9 nM

## C#Cc1ccc2[nH]c(S(=O)(=O)N3CCN(C(=O)c4ncc(-c5cc[n+]([O-])cc5)s4)CC3)cc2c1 [Example A-231, 4-[2-[[4-[(5-Ethynylindol-2-yl)sulfonyl]piperazin-1-yl]carbonyl]thiazol-5-yl]pyridine N-oxide]
Human FXa; [4]
  IC50: 2.3 nM

## O=C(c1ncc(-c2cc[n+]([O-])cc2)s1)N1CCN(S(=O)(=O)c2cc3ccc(Cl)cc3s2)CC1 [Example A-239, 4-[2-[[4-[(6-Chlorobenzo[b]thien-2-yl)sulfonyl]piperazin-1-yl]carbonyl]thiazol-5-yl]pyridine N-oxide]
Human FXa; [4]
  IC50: 3.5 nM

## CN1Cc2ccc(C(=O)N3CCN(S(=O)(=O)c4cc5cc(Cl)ccc5[nH]4)CC3)cc2C1 (as salt: salt) [Example B-190, 1-[(5-Chloroindol-2-yl)sulfonyl]-4-[(2-methylisoindolin-5-yl)carbonyl]piperazine]
other
  melting point: 175 to 180 °C (dec.)
